Results published in ChEMBL document CHEMBL3044803, “Impact of tricyclazole and azoxystrobin on growth, sporulation and secondary infection of the rice blast fungus, Magnaporthe oryzae” (Pest Manag Sci, 2013).
Converted amounts (≈) assume the structure as drawn. The source made the active and inactive calls. No cut-off for these calls is given here.

Columns and labels:
Pyricularia grisea = assay: Fungicidal activity against Magnaporthe grisea; assay type: functional; settings: read-out: ED50 (the source's name)
Pyricularia oryzae [1] = assay: Fungicidal activity against Magnaporthe oryzae from perennial ryegrass; assay type: functional; settings: read-out: ED50 (the source's name)
Pyricularia oryzae [2] = assay: Fungicidal activity against Magnaporthe oryzae assessed as reduction of appressorium diameter of conidia at 0.01 to 1 mg/l at 26 degC measured after 7 days; assay type: functional, organism-based
Pyricularia oryzae [3] = assay: Fungicidal activity against Magnaporthe oryzae assessed as germination of conidia at 1 mg/l at 26 degC measured after 7 days; assay type: functional
Pyricularia oryzae [4] = assay: Fungicidal activity against Magnaporthe oryzae assessed as germination of conidia at 0.01 mg/l at 26 degC measured after 7 days; assay type: functional, organism-based
Pyricularia oryzae [5] = assay: microbe, parasite or virus in culture; assay type: functional; settings: 168 h
Pyricularia oryzae [6] = assay: microbe, parasite or virus in culture; assay type: functional, organism-based; settings: 168 h
Pyricularia oryzae [7] = assay: microbe, parasite or virus in culture; assay type: functional; settings: for EC50: Pyricularia oryzae, 168 h, read-out: ED50 (the source's name)
Pyricularia oryzae [8] = assay: microbe, parasite or virus in culture; settings: 168 h, read-out: INH

| SMILES | EC50 (Pyricularia grisea) | EC50 (Pyricularia oryzae [1]) | Activity (Pyricularia oryzae [2]) | Activity (Pyricularia oryzae [3]) | Activity (Pyricularia oryzae [4]) | inhibition at 1 µg/mL (Pyricularia oryzae [5]) | EC50 (Pyricularia oryzae [6]) | ED90 (Pyricularia oryzae [7]) | EC50 (Pyricularia oryzae [7]) | inhibition at 5 µg/mL (Pyricularia oryzae [8]) |
| --- | --- | --- | --- | --- | --- | --- | --- | --- | --- | --- |
| CO/C=C(/C(=O)OC)c1ccccc1Oc1cc(Oc2ccccc2C#N)ncn1 [AZOXYSTROBIN] | 1.8 µg/mL (≈ 4.46 µM) | 0.013 µg/mL (≈ 0.0322 µM) | Active | 67.1% | inactive | 95% | 0.017 µg/mL (≈ 0.0421 µM) | 69.58 µg/mL (≈ 172 µM) | 0.044 µg/mL (≈ 0.109 µM) |  |
| Cc1cccc2sc3nncn3c12 [TRICYCLAZOLE] |  |  |  |  |  |  | 0.072 µg/mL (≈ 0.38 µM) | 215.64 µg/mL (≈ 1140 µM) | 1 µg/mL (≈ 5.31 µM) | 95% |
